Experimental data from US20200352931A1, “OXALAMIDES AS MODULATORS OF INDOLEAMINE 2,3-DIOXYGENASE” (PHENEX DISCOVERY VERWALTUNGS-GMBH, priority 2017, published 2020).

What follows are compounds tested against T1, Indoleamine 2,3-Dioxygenase (IDO1) in SKOV-3 cells (Homo sapiens, UniProt P14902) (assay: SKOV-3 cellular indoleamine 2,3-dioxygenase assay). Conditions: 50 ng/ml Interferon gamma, 100 μM L-Tryptophan, 24 hours, N-Formylkynurenin fluorescence, read-out: cell based activity (IC50).
T1 construct: endogenous in cells; host or cells: SKOV-3 (ATCC HTB-77), stimulated with 50 ng/ml interferon gamma
T1 sequence (P14902 whole entry): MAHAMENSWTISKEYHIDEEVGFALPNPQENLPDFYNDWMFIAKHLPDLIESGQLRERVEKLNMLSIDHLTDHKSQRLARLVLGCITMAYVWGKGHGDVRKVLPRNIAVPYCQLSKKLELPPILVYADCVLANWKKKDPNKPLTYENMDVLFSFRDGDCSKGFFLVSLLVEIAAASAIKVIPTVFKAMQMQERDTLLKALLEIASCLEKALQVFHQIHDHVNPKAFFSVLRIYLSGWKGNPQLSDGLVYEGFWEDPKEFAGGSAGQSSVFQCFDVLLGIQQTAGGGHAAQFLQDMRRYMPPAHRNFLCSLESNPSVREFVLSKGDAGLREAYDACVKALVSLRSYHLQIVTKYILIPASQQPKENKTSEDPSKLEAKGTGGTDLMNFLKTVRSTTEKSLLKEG
Method: SKOV-3 Cellular Indoleamine 2,3-Dioxygenase Assay
SKOV-3 cells were obtained from the American Type Culture Collection (ATCC® HTB-77™) and maintained in McCoy's medium (Pan Biotech) supplemented with 10% fetal bovine serum and 1% Penicilin/Streptomycin. Cells were kept at 37° C. in a humidified incubator with 5% CO2. For assay preparation, cells were seeded at a density of 2*10^5/m into black clear bottom 96 well plates in 100 μl medium/well supplemented with 50 ng/ml Interferon gamma (eBioscience, Thermo Fisher Scientific). After cells fully adhered to the plate, dilution series of compounds were added in medium containing additional L-Tryptophan to a final L-Tryptophan concentration of 100 μM. The cells were incubated for 24 hours. Detection of produced N-Formylkynurenin was performed by addition of 3-Methylpiperidine to a final concentration of 200 mM. The plates were sealed and heated to 65° C. for 20 minutes in a water bath. After cooling the fluorescence of each well was recorded with a Victor™ X4 (PerkinElmer) plate reader at an emission wavelength of 535 nm and excitation at 405 nm (Tomek et al.; Anal Bioanal Chem (2013) 405:2515-2524., Tomek et al.; Biochim Biophys Acta. 2015 September; 1850(9):1772-80).

SMILES | IC50 [nM]
O=C(NC1CCC(F)(F)CC1)C(=O)N1CCC(c2ccnc3ccc(F)cc23)CC1 [8/3] | > 1000
O=C(NCC1CC1)C(=O)N1CCC(c2ccnc3ccc(F)cc23)CC1 [8/4] | > 1000
O=C(NC1CCC2(CC1)CC2)C(=O)N1CCC(c2ccnc3ccc(F)cc23)CC1 [8/5] | > 1000
O=C(NC1CCC(C(F)(F)F)CC1)C(=O)N1CCC(c2ccnc3ccc(F)cc23)CC1 (centres unmarked) [8/6] | > 1000
O=C(Nc1ccc(Cl)cn1)C(=O)N1CCC2(CC1)OCc1ccccc12 [100/1] | 100 to 1000
O=C(Nc1ccc(Cl)cn1)C(=O)N1CCC2(CC1)COc1ccccc12 [100/2] | 100 to 1000
CN1C(=O)C2(CCN(C(=O)C(=O)Nc3ccc(Cl)cn3)CC2)c2ccccc21 [100/4] | > 1000
O=C(Nc1ccc(Cl)cn1)C(=O)N1CCC2(CC1)OCc1ccncc12 [100/5] | > 1000
O=C(Nc1ccc(Cl)cn1)C(=O)N1CCC2(CC1)NC(=O)c1ccccc12 [100/6] | > 1000
CN1C(=O)c2ccccc2C12CCN(C(=O)C(=O)Nc1ccc(Cl)cn1)CC2 [100/7] | > 1000
O=C(Nc1ccc(Cl)cn1)C(=O)N1CCC2(CC1)OCc1cc(Cl)ccc12 [100/8] | 100 to 1000
O=C(Nc1ccc(Cl)cc1)C(=O)N1CCC2(CC1)OCc1cc(Cl)ccc12 [100/9] | < 100
O=C(Nc1ccc(Cl)cn1)C(=O)N1CCC2(CC1)OCc1cc(C(F)(F)F)ccc12 [100/11] | < 100
O=C(Nc1ccc(Cl)cc1)C(=O)N1CCC2(CC1)OCc1cc(C(F)(F)F)ccc12 [100/12] | < 100
O=C(Nc1ccc(Cl)cc1)C(=O)N1CCC2(CC1)OCc1cc(C(F)(F)F)c(F)cc12 [100/13] | < 100
N#Cc1ccc2c(c1)COC21CCN(C(=O)C(=O)Nc2ccc(Cl)cc2)CC1 [100/14] | 100 to 1000

Now from value to compound:

IC50 [nM] | SMILES
> 1000 | O=C(Nc1ccc(Cl)cn1)C(=O)N1CCC2(CC1)OCc1ccc(Cl)cc12 [100/15]
< 100 | O=C(Nc1ccc(Cl)cn1)C(=O)N1CCC(c2ccnc3ccc(F)cc23)CC1 [Example 2, N-(5-Chloropyridin-2-yl)-2-(4-(6-fluoroquinolin-4-yl)piperidin-1-yl)-2-oxoacetamide]
< 100 | O=C(Nc1ccc(Cl)cn1)C(=O)N1CCC(c2ccnc3ccccc23)CC1 [Example 3, N-(5-Chloropyridin-2-yl)-2-oxo-2-(4-(quinolin-4-yl)piperidin-1-yl)acetamide]
100 to 1000 | C[C@H]1CC[C@H](NC(=O)C(=O)N2CCC(c3ccnc4ccccc34)CC2)CC1 [Example 4, N-((1r,4r)-4-Methylcyclohexyl)-2-oxo-2-(4-(quinolin-4-yl)piperidin-1-yl)acetamide]
100 to 1000 | O=C(N[C@H]1CCc2ccccc2C1)C(=O)N1CCC(c2ccnc3ccc(F)cc23)CC1 [Example 5, (S)-2-(4-(6-Fluoroquinolin-4-yl)piperidin-1-yl)-2-oxo-N-(1,2,3,4-tetrahydro-naphthalen-2-yl)acetamide]
100 to 1000 | O=C(Nc1ccc(Cl)cn1)C(=O)N1CCC(c2cccc3ccccc23)CC1 [Example 6, N-(5-Chloropyridin-2-yl)-2-(4-(naphthalen-1-yl)piperidin-1-yl)-2-oxoacetamide]
< 100 | O=C(Nc1ccc(CCCl)cc1)C(=O)N1CCC(c2ccnc3ccc(F)cc23)CC1 [Example 7, N-(4-(2-Chloroethyl)phenyl)-2-(4-(6-fluoroquinolin-4-yl)piperidin-1-yl)-2-oxoacetamide]
> 1000 | CC(NC(=O)C(=O)N1CCC(c2ccnc3ccc(F)cc23)CC1)c1ccccc1 (centres unmarked) [Example 8, 2-(4-(6-Fluoroquinolin-4-yl)piperidin-1-yl)-2-oxo-N-(1-phenylethyl)acetamide]
> 1000 | O=C(Nc1ccc(Cl)cn1)C(=O)N1CCC(c2ccc(C(=O)O)c3ccccc23)CC1 [Example 9, 4-(1-(2-((5-Chloropyridin-2-yl)amino)-2-oxoacetyl)piperidin-4-yl)-1-naphthoic Acid]
< 100 | O=C(Nc1ccc(Cl)cn1)C(=O)N1CCC2(CCc3ccccc32)CC1 [Example 100]
< 100 | O=C(Nc1ccc(Cl)cc1)C(=O)N1CCC2(CC1)COc1cc(C(F)F)ccc12 [Example 101, N-(4-Chlorophenyl)-2-(6-(difluoromethyl)-2H-spiro[benzofuran-3,4′-piperidin]-1′-yl)-2-oxoacetamide]
100 to 1000 | O=C(Nc1ccc(Cl)cc1)C(=O)N1CCCC2(CC1)COc1cc(C(F)(F)F)ccc12 (centres unmarked) [Example 102, N-(4-Chlorophenyl)-2-oxo-2-(6′-(trifluoromethyl)-2′H-spiro[azepane-4,3′-benzofuran]-1-yl)acetamide]
> 1000 | O=C(NC1Cc2ccc(F)cc21)C(=O)N1CCC2(CC1)COc1cc(C(F)(F)F)ccc12 (centres unmarked) [Example 103, N-(4-Fluorobicyclo[4.2.0]octa-1(6),2,4-trien-7-yl)-2-oxo-2-(6-(trifluoromethyl)-2H-spiro[benzofuran-3,4′-piperidin]-1′-yl)acetamide]
